Laboratory results as given in ChEMBL document CHEMBL3091352, “Synthesis and pharmacological evaluation of novel bisindolylalkanes analogues” (Bioorg Med Chem, 2013).

Species on record: Homo sapiens
Assay: Inhibition of human DNA topoisomerase-2 at 100 uM after 30 mins by agarose gel electrophoresis

inhibition: 90.3%
SMILES: COc1cc([C@@H]2c3cc4c(cc3[C@@H](O[C@@H]3O[C@@H]5CO[C@@H](C)O[C@H]5[C@H](O)[C@H]3O)[C@H]3COC(=O)[C@H]23)OCO4)cc(OC)c1O
